Data: the supplement of paper PMC10307832

How the values were obtained:
Experiment in all cases: relative viability (nuclei count vs DMSO), 5 days (fraction); higher = more cells survive
Mirin + Vorinostat = compound: N=C1NC(=O)/C(=C/c2ccc(O)cc2)S1 [Mirin] + O=C(CCCCCCC(=O)Nc1ccccc1)NO [Vorinostat] (partner 1 µM)
Method in brief: (§1)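 Dosing by pin tool came one day after lung cancer cell lines were seeded in 1536-well plates, using either one drug or a fixed anchor-drug dose plus five library-drug doses (not always all listed) in √10 steps. After 5 days, nuclei were counted on 4× images. Relative viability is treated-well nuclei count divided by vehicle-well nuclei count, and values are medians of duplicate plates.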

[1] = compound: CCn1c(-c2nonc2N)nc2cnc(Oc3cccc(NC(=O)c4ccc(OCCN5CCOCC5)cc4)c3)cc21 + Cc1nc(Nc2ncc(C(=O)Nc3c(C)cccc3Cl)s2)cc(N2CCN(CCO)CC2)n1 [Dasatinib] (partner 0.075 µM)
Method in brief: as §1

Mirin + Alpelisib = compound: N=C1NC(=O)/C(=C/c2ccc(O)cc2)S1 [Mirin] + Cc1nc(NC(=O)N2CCC[C@H]2C(N)=O)sc1-c1ccnc(C(C)(C)C(F)(F)F)c1 [Alpelisib] (partner 2 µM)
Method in brief: as §1

Mirin + Decitabine = compound: N=C1NC(=O)/C(=C/c2ccc(O)cc2)S1 [Mirin] + Nc1ncn([C@H]2C[C@H](O)[C@@H](CO)O2)c(=O)n1 [Decitabine] (partner 2 µM)
Method in brief: as §1

## UMC-11
Mirin + Vorinostat; first compound 0.25 µM
  relative viability: 0.411
Mirin + Vorinostat; first compound 0.7906 µM
  relative viability: 0.362
Mirin + Vorinostat; first compound 2.5 µM
  relative viability: 0.399
Mirin + Vorinostat; first compound 7.906 µM
  relative viability: 0.305
Mirin + Vorinostat; first compound 25 µM
  relative viability: 0.266
[1]; first compound 0.04 µM
  relative viability: 0.37
[1]; first compound 0.1265 µM
  relative viability: 0.415
[1]; first compound 0.4 µM
  relative viability: 0.337
[1]; first compound 1.265 µM
  relative viability: 0.214
[1]; first compound 4 µM
  relative viability: 0.182
Mirin + Alpelisib; first compound 0.25 µM
  relative viability: 1.03
Mirin + Alpelisib; first compound 0.7906 µM
  relative viability: 0.958
Mirin + Alpelisib; first compound 2.5 µM
  relative viability: 0.96
Mirin + Alpelisib; first compound 7.906 µM
  relative viability: 0.935
Mirin + Alpelisib; first compound 25 µM
  relative viability: 0.572
Mirin + Decitabine; first compound 0.25 µM
  relative viability: 0.533
Mirin + Decitabine; first compound 2.5 µM
  relative viability: 0.572
Mirin + Decitabine; first compound 7.906 µM
  relative viability: 0.54
Mirin + Decitabine; first compound 25 µM
  relative viability: 0.418
